Assay results as given in PubChem BioAssay (NCI).
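Briefly, cells in 96-well plates were exposed to five compound concentrations for 48 h, and endpoints were estimated by linear interpolation. Here, GI50 denotes the concentration required for 50% inhibition of growth. TGI: concentration producing complete growth inhibition.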

Key:
Assay in all cases: NCI tumour cell line growth inhibition, 48 h
786-0 renal = system: 786-0 renal
A498 renal = system: A498 renal
A549 NSCLC = system: A549 NSCLC
ACHN renal = system: ACHN renal
BT-549 breast = system: BT-549 breast
CAKI-1 renal = system: CAKI-1 renal
CCRF-CEM leukemia = system: CCRF-CEM leukemia
COLO 205 colon = system: COLO 205 colon
DU-145 prostate = system: DU-145 prostate
EKVX NSCLC = system: EKVX NSCLC
HCC-2998 colon = system: HCC-2998 colon
HCT-116 colon = system: HCT-116 colon
HCT-15 colon = system: HCT-15 colon
HL-60(TB) leukemia = system: HL-60(TB) leukemia
HOP-62 NSCLC = system: HOP-62 NSCLC
HOP-92 NSCLC = system: HOP-92 NSCLC
HS 578T breast = system: HS 578T breast
HT29 colon = system: HT29 colon
IGROV1 ovarian = system: IGROV1 ovarian
K-562 leukemia = system: K-562 leukemia
KM12 colon = system: KM12 colon
LOX IMVI melanoma = system: LOX IMVI melanoma
M14 melanoma = system: M14 melanoma
MALME-3M melanoma = system: MALME-3M melanoma
MCF7 breast = system: MCF7 breast
MDA-MB-231 breast = system: MDA-MB-231 breast
MDA-MB-435 = system: MDA-MB-435
NCI-H226 lung = system: NCI-H226 lung
NCI-H460 lung = system: NCI-H460 lung
NCI-H522 lung = system: NCI-H522 lung
NCI/ADR-RES ovarian = system: NCI/ADR-RES ovarian
OVCAR-3 ovarian = system: OVCAR-3 ovarian
OVCAR-4 ovarian = system: OVCAR-4 ovarian
OVCAR-5 ovarian = system: OVCAR-5 ovarian
OVCAR-8 ovarian = system: OVCAR-8 ovarian
PC-3 prostate = system: PC-3 prostate
RPMI-8226 leukemia = system: RPMI-8226 leukemia
RXF 393 renal = system: RXF 393 renal
SF-268 CNS = system: SF-268 CNS
SF-295 CNS = system: SF-295 CNS
SF-539 CNS = system: SF-539 CNS
SK-MEL-2 melanoma = system: SK-MEL-2 melanoma
SK-MEL-28 melanoma = system: SK-MEL-28 melanoma
SK-MEL-5 melanoma = system: SK-MEL-5 melanoma
SK-OV-3 ovarian = system: SK-OV-3 ovarian
SNB-19 CNS = system: SNB-19 CNS
SNB-75 CNS = system: SNB-75 CNS
SR leukemia = system: SR leukemia
SW-620 colon = system: SW-620 colon
T-47D breast = system: T-47D breast
TK-10 renal = system: TK-10 renal
U251 CNS = system: U251 CNS
UACC-257 melanoma = system: UACC-257 melanoma
UACC-62 melanoma = system: UACC-62 melanoma
UO-31 renal = system: UO-31 renal

## Cc1ccc2c(n1)C(=O)C(Cl)=C(Nc1ccccc1C(=O)OC(C)(C)C)C2=O
786-0 renal
  GI50: 1.69 µM
  TGI: 3.22 µM
A498 renal
  GI50: 12.4 µM
  TGI: 47.8 µM
A549 NSCLC
  GI50: 44.5 µM
  TGI: > 100 µM
ACHN renal
  GI50: 1.75 µM
  TGI: 3.14 µM
BT-549 breast
  GI50: 2.9 µM
  TGI: 9.04 µM
CAKI-1 renal
  GI50: 1.55 µM
  TGI: 2.9 µM
CCRF-CEM leukemia
  GI50: 0.425 µM
  TGI: > 100 µM
COLO 205 colon
  GI50: 1.77 µM
  TGI: 3.48 µM
DU-145 prostate
  GI50: 1.77 µM
  TGI: 3.32 µM
EKVX NSCLC
  GI50: 1.59 µM
  TGI: 3.01 µM
HCC-2998 colon
  GI50: 1.75 µM
  TGI: 3.27 µM
HCT-116 colon
  GI50: 1.61 µM
  TGI: 3.15 µM
HCT-15 colon
  GI50: 1.37 µM
  TGI: 3.32 µM
HL-60(TB) leukemia
  GI50: 0.394 µM
  TGI: 1.9 µM
HOP-62 NSCLC
  GI50: 3.59 µM
  TGI: 18.3 µM
HOP-92 NSCLC
  GI50: 1.53 µM
  TGI: 2.89 µM
HS 578T breast
  GI50: 2.39 µM
  TGI: 7.54 µM
HT29 colon
  GI50: 2.94 µM
  TGI: 8.52 µM
IGROV1 ovarian
  GI50: 1.73 µM
  TGI: 3.43 µM
K-562 leukemia
  GI50: 0.549 µM
  TGI: > 100 µM
KM12 colon
  GI50: 6.07 µM
  TGI: 50.4 µM
LOX IMVI melanoma
  GI50: 1.02 µM
  TGI: 2.31 µM
M14 melanoma
  GI50: 1.73 µM
  TGI: 3.38 µM
MALME-3M melanoma
  GI50: 1.66 µM
  TGI: 3.27 µM
MCF7 breast
  GI50: 0.813 µM
  TGI: 3.58 µM
MDA-MB-231 breast
  GI50: 1.58 µM
  TGI: 3.26 µM
MDA-MB-435
  GI50: 1.71 µM
  TGI: 3.19 µM
NCI-H226 lung
  GI50: 6.77 µM
  TGI: > 100 µM
NCI-H460 lung
  GI50: 3.08 µM
  TGI: 11.3 µM
NCI-H522 lung
  GI50: 1.83 µM
  TGI: 3.86 µM
NCI/ADR-RES ovarian
  GI50: 2.17 µM
  TGI: 5.35 µM
OVCAR-3 ovarian
  GI50: 1.31 µM
  TGI: 2.96 µM
OVCAR-4 ovarian
  GI50: 1.4 µM
  TGI: 2.78 µM
OVCAR-5 ovarian
  GI50: 2.05 µM
  TGI: 4.1 µM
OVCAR-8 ovarian
  GI50: 2.83 µM
  TGI: 9.32 µM
PC-3 prostate
  GI50: 1.78 µM
  TGI: 4.19 µM
RPMI-8226 leukemia
  GI50: 1.78 µM
  TGI: 5.9 µM
RXF 393 renal
  GI50: 1.62 µM
  TGI: 2.99 µM
SF-268 CNS
  GI50: 3.06 µM
  TGI: 14.7 µM
SF-295 CNS
  GI50: 4.25 µM
  TGI: 22.5 µM
SF-539 CNS
  GI50: 1.7 µM
  TGI: 3.18 µM
SK-MEL-2 melanoma
  GI50: 2.27 µM
  TGI: 6.78 µM
SK-MEL-28 melanoma
  GI50: 1.66 µM
  TGI: 3.12 µM
SK-MEL-5 melanoma
  GI50: 1.59 µM
  TGI: 2.98 µM
SK-OV-3 ovarian
  GI50: > 100 µM
  TGI: > 100 µM
SNB-19 CNS
  GI50: 3.3 µM
  TGI: 15.4 µM
SNB-75 CNS
  GI50: 14.7 µM
  TGI: > 100 µM
SR leukemia
  GI50: 0.442 µM
  TGI: 7.86 µM
SW-620 colon
  GI50: 1.84 µM
  TGI: 6.26 µM
T-47D breast
  GI50: 1.84 µM
  TGI: 4.91 µM
TK-10 renal
  GI50: 1.81 µM
  TGI: 3.28 µM
U251 CNS
  GI50: 2.42 µM
  TGI: 6.81 µM
UACC-257 melanoma
  GI50: 1.69 µM
  TGI: 3.3 µM
UACC-62 melanoma
  GI50: 1.82 µM
  TGI: 3.98 µM
UO-31 renal
  GI50: 1.42 µM
  TGI: 2.74 µM
